Experimental data published in the NIST ThermoML archive (doi:10.1021/je060271a).

Conditions: 283.15 K, Liquid, Vibrating tube method

CCCCCC(=O)OCC(COC(=O)CCCCC)(COC(=O)CCCCC)COC(=O)CCCCC [pentaerythritol tetrahexanoate]
Conditions	mass density [kg/m3]
20425 kPa	1015.6
20443 kPa	1015.7
20458 kPa	1015.7
20473 kPa	1015.7
20491 kPa	1015.7
20506 kPa	1015.6
20522 kPa	1015.6
20537 kPa	1015.7
20555 kPa	1015.7
20571 kPa	1015.7
20586 kPa	1015.8
20606 kPa	1015.7
20621 kPa	1015.7
20637 kPa	1015.9
20652 kPa	1015.7
20670 kPa	1015.8
20686 kPa	1015.8
20701 kPa	1015.7
20719 kPa	1015.8
20735 kPa	1015.7
20750 kPa	1015.8
20769 kPa	1016
20785 kPa	1015.8
20801 kPa	1016
20817 kPa	1015.9
20836 kPa	1015.8
20851 kPa	1015.8
20867 kPa	1015.8
20886 kPa	1015.9
20902 kPa	1015.9
20918 kPa	1015.9
20937 kPa	1015.9
20953 kPa	1015.9
20968 kPa	1015.9
20988 kPa	1015.9
21004 kPa	1016
21021 kPa	1016
21040 kPa	1016
21057 kPa	1016
21073 kPa	1016
21092 kPa	1016
21106 kPa	1016
21122 kPa	1016
21140 kPa	1016.1
21155 kPa	1016
21170 kPa	1015.9
21185 kPa	1016.1
21204 kPa	1016.1
21219 kPa	1016
21237 kPa	1016
21252 kPa	1016.1
21267 kPa	1016.1
21282 kPa	1016.1
21301 kPa	1016.1
21316 kPa	1016.1
21332 kPa	1016.1
21350 kPa	1016.1
21366 kPa	1016.2
21384 kPa	1016.2
21399 kPa	1016.1
21415 kPa	1016.1
21430 kPa	1016.2
21449 kPa	1016.3
21465 kPa	1016.1
21480 kPa	1016.2
21499 kPa	1016.1
21514 kPa	1016.3
21530 kPa	1016.3
21546 kPa	1016.3
21565 kPa	1016.2
21581 kPa	1016.1
21597 kPa	1016.3
21616 kPa	1016.3
21632 kPa	1016.3
21648 kPa	1016.3
21667 kPa	1016.2
21684 kPa	1016.3
21699 kPa	1016.3
21715 kPa	1016.3
21734 kPa	1016.4
21766 kPa	1016.3
21786 kPa	1016.3
21802 kPa	1016.5
21821 kPa	1016.3
21837 kPa	1016.4
21853 kPa	1016.4
21870 kPa	1016.3
21887 kPa	1016.3
21904 kPa	1016.4
21923 kPa	1016.5
21940 kPa	1016.5
21959 kPa	1016.4
21976 kPa	1016.5
21992 kPa	1016.5
22008 kPa	1016.5
22028 kPa	1016.5
22044 kPa	1016.5
22061 kPa	1016.5
22081 kPa	1016.5
22098 kPa	1016.4
22117 kPa	1016.6
22134 kPa	1016.7
22150 kPa	1016.5
22170 kPa	1016.6
22187 kPa	1016.6
22204 kPa	1016.7
22224 kPa	1016.5
22241 kPa	1016.6
22261 kPa	1016.5
22278 kPa	1016.5
22295 kPa	1016.5
22316 kPa	1016.6
22333 kPa	1016.6
22350 kPa	1016.7
22367 kPa	1016.7
22386 kPa	1016.7
22402 kPa	1016.7
22421 kPa	1016.6
22436 kPa	1016.7
22452 kPa	1016.7
22468 kPa	1016.6
22487 kPa	1016.8
22503 kPa	1016.7
22522 kPa	1016.7
22538 kPa	1016.8
22555 kPa	1016.8
22574 kPa	1016.7
22590 kPa	1016.8
22607 kPa	1016.7
22623 kPa	1016.8
22643 kPa	1016.7
22660 kPa	1016.7
22676 kPa	1016.8
22695 kPa	1016.9
22710 kPa	1016.9
22728 kPa	1016.8
22744 kPa	1016.8
22760 kPa	1016.9
22779 kPa	1016.9
22795 kPa	1017
22810 kPa	1016.8
22826 kPa	1017
22845 kPa	1017
22861 kPa	1016.8
22880 kPa	1017
22895 kPa	1017
22911 kPa	1016.9
22928 kPa	1017
22946 kPa	1017
22963 kPa	1017
22982 kPa	1016.9
22997 kPa	1017.1
23012 kPa	1016.9
23030 kPa	1017.2
23045 kPa	1016.9
23060 kPa	1017
23075 kPa	1017
23093 kPa	1017
23108 kPa	1017.1
23124 kPa	1017.1
23142 kPa	1017.1
23157 kPa	1017
23175 kPa	1017
23191 kPa	1017.1
23206 kPa	1017.1
23221 kPa	1017.2
23240 kPa	1017
23255 kPa	1017.2
23274 kPa	1017.3
23290 kPa	1017.1
23305 kPa	1017
23323 kPa	1017.2
23339 kPa	1017.2
23354 kPa	1017.2
23370 kPa	1017.3
23389 kPa	1017
23405 kPa	1017.1
23422 kPa	1017.2
23437 kPa	1017.2
23456 kPa	1017.3
23472 kPa	1017.2
23488 kPa	1017.3
23507 kPa	1017.3
23523 kPa	1017.3
23539 kPa	1017.3
23555 kPa	1017.3
23574 kPa	1017.4
23590 kPa	1017.3
23607 kPa	1017.3
23627 kPa	1017.4
23640 kPa	1017.5
23659 kPa	1017.4
23675 kPa	1017.3
23691 kPa	1017.3
23711 kPa	1017.4
23726 kPa	1017.3
23746 kPa	1017.4
23762 kPa	1017.4
23778 kPa	1017.3
23794 kPa	1017.3
23813 kPa	1017.5
23830 kPa	1017.5
23849 kPa	1017.4
23866 kPa	1017.5
23883 kPa	1017.5
23902 kPa	1017.5
23919 kPa	1017.4
23935 kPa	1017.5
23951 kPa	1017.5
23971 kPa	1017.5
23988 kPa	1017.5
24004 kPa	1017.5
24024 kPa	1017.5
24041 kPa	1017.6
24061 kPa	1017.6
24078 kPa	1017.6
24095 kPa	1017.6
24111 kPa	1017.6
24131 kPa	1017.6
24148 kPa	1017.7
24185 kPa	1017.6
24202 kPa	1017.5
24222 kPa	1017.8
24239 kPa	1017.6
24272 kPa	1017.8
24327 kPa	1017.7
24364 kPa	1017.7
24382 kPa	1017.7
24399 kPa	1017.7
24419 kPa	1017.6
24436 kPa	1017.7
24457 kPa	1017.8
24474 kPa	1017.8
24492 kPa	1017.9
24509 kPa	1017.7
24530 kPa	1017.9
24548 kPa	1017.9
24565 kPa	1017.9
24586 kPa	1017.7
24603 kPa	1017.7
24620 kPa	1017.8
24641 kPa	1018
24659 kPa	1017.8
24676 kPa	1017.9
24697 kPa	1017.9
24715 kPa	1017.9
24733 kPa	1017.8
24754 kPa	1017.8
24772 kPa	1018
24789 kPa	1018
24810 kPa	1017.9
24828 kPa	1017.9
24846 kPa	1017.9
24867 kPa	1017.9
24884 kPa	1018
24903 kPa	1017.8
24924 kPa	1018
24942 kPa	1018
24960 kPa	1018.1
24981 kPa	1018
25000 kPa	1018
25018 kPa	1018
25037 kPa	1018.1
25059 kPa	1018.2
25077 kPa	1018
25095 kPa	1018.1
25117 kPa	1018.2
25135 kPa	1018.2
25154 kPa	1018.1
25175 kPa	1018.1
25194 kPa	1018.1
25212 kPa	1018.1
25234 kPa	1018.2
25253 kPa	1018.2
25272 kPa	1018.1
25290 kPa	1018.1
25309 kPa	1018.2
25331 kPa	1018.2
25350 kPa	1018.2
25372 kPa	1018.2
25391 kPa	1018.3
25410 kPa	1018.2
25428 kPa	1018.2
25451 kPa	1018.2
25470 kPa	1018.3
25489 kPa	1018.2
25511 kPa	1018.1
25530 kPa	1018.3
25553 kPa	1018.2
25572 kPa	1018.3
